Measurements: patent US8431565B2 (priority 2007, dated 2013)

Target: human CB1 receptor (hCB1) (Homo sapiens, UniProt P21554)
Type: cell-based

human CB1 receptor (hCB1), sequence (P21554 whole entry): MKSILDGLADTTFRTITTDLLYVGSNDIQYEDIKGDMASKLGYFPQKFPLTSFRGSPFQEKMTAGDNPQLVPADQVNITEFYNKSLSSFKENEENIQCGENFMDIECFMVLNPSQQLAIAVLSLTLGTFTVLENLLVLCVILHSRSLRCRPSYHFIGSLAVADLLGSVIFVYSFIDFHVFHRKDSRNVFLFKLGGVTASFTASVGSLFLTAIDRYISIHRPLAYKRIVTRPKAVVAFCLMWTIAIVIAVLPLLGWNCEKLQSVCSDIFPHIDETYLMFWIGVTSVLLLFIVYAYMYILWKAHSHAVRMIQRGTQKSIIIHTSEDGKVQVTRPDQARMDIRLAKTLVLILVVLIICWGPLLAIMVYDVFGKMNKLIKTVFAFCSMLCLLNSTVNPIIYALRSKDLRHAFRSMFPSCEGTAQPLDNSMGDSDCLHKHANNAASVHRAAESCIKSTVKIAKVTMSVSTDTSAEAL

For `CNC(=O)[C@@H](NC(=O)c1nc(-c2ccc(=O)[nH]c2)n2c1CN(C)CCC2)C(C)(C)C` [Compound 645, (S)-N-(3,3-dimethyl-1-(methylamino)-1-oxobutan-2-yl)-8-methyl-3-(6-oxo-1,6-dihydropyridin-3-yl)-6,7,8,9-tetrahydro-5H-imidazo[1,5-a][1,4]diazepine-1-carboxamide], which EC50 is on record?
The EC50 was over 10 µM.

`CN1CCCn2c(-c3cc(Cl)ccc3F)nc(C(=O)N[C@H](C(=O)N[C@H]3CCC[C@H]3O)C(C)(C)C)c2C1` [Compound 840, 3-(5-chloro-2-fluorophenyl)-N-((S)-1-((1S,2R)-2-hydroxycyclopentylamino)-3,3-dimethyl-1-oxobutan-2-yl)-8-methyl-6,7,8,9-tetrahydro-5H-imidazo[1,5-a][1,4]diazepine-1-carboxamide] was tested. Which EC50 did it give?
The EC50 was over 10 µM.

For `CN1CCCn2c(-c3cc(Cl)ccc3F)nc(C(=O)NC(CN3CCCC3)C(C)(C)C)c2C1` (stereo not drawn) [Compound 720, 3-(5-chloro-2-fluorophenyl)-N-(3,3-dimethyl-1-(pyrrolidin-1-yl)butan-2-yl)-8-methyl-6,7,8,9-tetrahydro-5H-imidazo[1,5-a][1,4]diazepine-1-carboxamide], which EC50 is on record?
The EC50 was over 10 µM.

With `CNC(=O)[C@@H](NC(=O)c1nc(-c2cc(F)c(F)cc2OC(C)C)n2c1CN(C)CCC2)C(C)(C)C` [Compound 651, (S)-3-(4,5-difluoro-2-isopropoxyphenyl)-N-(3,3-dimethyl-1-(methylamino)-1-oxobutan-2-yl)-8-methyl-6,7,8,9-tetrahydro-5H-imidazo[1,5-a][1,4]diazepine-1-carboxamide] as the compound, how does the EC50 read?
The EC50 was over 10 µM.

Which EC50 does the source give for `CNC(=O)[C@@H](NC(=O)c1nc(-c2ccc(=O)n(C)c2)n2c1CN(C)CCC2)C(C)(C)C` [Compound 708, (S)-N-(3,3-dimethyl-1-(methylamino)-1-oxobutan-2-yl)-8-methyl-3-(1-methyl-6-oxo-1,6-dihydropyridin-3-yl)-6,7,8,9-tetrahydro-5H-imidazo[1,5-a][1,4]diazepine-1-carboxamide] here?
The EC50 was over 10 µM.

For `CC(C)(C)[C@H](NC(=O)c1nc(-c2ccccc2)n2c1CNCC2)C(=O)NCCF` [Compound 731, (S)-N-(1-(2-fluoroethylamino)-3,3-dimethyl-1-oxobutan-2-yl)-3-phenyl-5,6,7,8-tetrahydroimidazo[1,5-a]pyrazine-1-carboxamide], which EC50 is on record?
The EC50 was over 10 µM.

How did the EC50 turn out when `CNC(=O)[C@@H](NC(=O)c1nc(-c2ccc(OC(C)C)cc2)n2c1CN(C)CCC2)C(C)(C)C` [Compound 649, (S)-N-(3,3-dimethyl-1-(methylamino)-1-oxobutan-2-yl)-3-(4-isopropoxyphenyl)-8-methyl-6,7,8,9-tetrahydro-5H-imidazo[1,5-a][1,4]diazepine-1-carboxamide] was run?
The EC50 was over 10 µM.

How did the EC50 turn out when `CNC(=O)[C@@H](NC(=O)c1nc(C2=CCCCO2)n2c1CN(C)CCC2)C(C)(C)C` [Compound 452, (S)-3-(3,4-dihydro-2H-pyran-6-yl)-N-(3,3-dimethyl-1-(methylamino)-1-oxobutan-2-yl)-8-methyl-6,7,8,9-tetrahydro-5H-imidazo[1,5-a][1,4]diazepine-1-carboxamide] was run?
The EC50 was over 10 µM.

Which EC50 does the source give for `CNC(=O)[C@@H](NC(=O)c1nc(-c2cnccc2Cl)n2c1CN(C)CCC2)C(C)(C)C` [Compound 627, (S)-3-(4-chloropyridin-3-yl)-N-(3,3-dimethyl-1-(methylamino)-1-oxobutan-2-yl)-8-methyl-6,7,8,9-tetrahydro-5H-imidazo[1,5-a][1,4]diazepine-1-carboxamide] here?
The EC50 was over 10 µM.

How did the EC50 turn out when `CNC(=O)[C@H]1CCN(C(=O)c2nc(-c3cc(Cl)c(F)cc3F)n3c2CN(C)CCC3)C1` [Compound 809, (S)-1-(3-(5-chloro-2,4-difluorophenyl)-8-methyl-6,7,8,9-tetrahydro-5H-imidazo[1,5-a][1,4]diazepine-1-carbonyl)-N-methylpyrrolidine-3-carboxamide] was run?
The EC50 was over 10 µM.

Which EC50 does the source give for `CNC(=O)[C@@H](NC(=O)c1nc(-c2cnn(-c3ccccc3)c2C)n2c1CN(C)CCC2)C(C)(C)C` [Compound 709, (S)-N-(3,3-dimethyl-1-(methylamino)-1-oxobutan-2-yl)-8-methyl-3-(5-methyl-1-phenyl-1H-pyrazol-4-yl)-6,7,8,9-tetrahydro-5H-imidazo[1,5-a][1,4]diazepine-1-carboxamide] here?
The EC50 was over 10 µM.

For `CN1CCCn2c(-c3cc(F)c(F)cc3F)nc(C(=O)N3CCC4(CCNC4=O)CC3)c2C1` [Compound 787, 8-(8-methyl-3-(2,4,5-trifluorophenyl)-6,7,8,9-tetrahydro-5H-imidazo[1,5-a][1,4]diazepine-1-carbonyl)-2,8-diazaspiro[4.5]decan-1-one], which EC50 is on record?
Its EC50 is over 10 µM.

`CNC(=O)[C@@H](NC(=O)c1nc(-c2ccnc(C)c2)n2c1CN(C)CCC2)C(C)(C)C` [Compound 638, (S)-N-(3,3-dimethyl-1-(methylamino)-1-oxobutan-2-yl)-8-methyl-3-(2-methylpyridin-4-yl)-6,7,8,9-tetrahydro-5H-imidazo[1,5-a][1,4]diazepine-1-carboxamide] was tested. Which EC50 did it give?
Its EC50 is over 10 µM.

`CNC(=O)[C@@H](NC(=O)c1nc(C2CCN(S(=O)(=O)C(C)C)CC2)n2c1CN(C)CCC2)C(C)(C)C` [Compound 775, (S)-N-(3,3-dimethyl-1-(methylamino)-1-oxobutan-2-yl)-3-(1-(isopropylsulfonyl)piperidin-4-yl)-8-methyl-6,7,8,9-tetrahydro-5H-imidazo[1,5-a][1,4]diazepine-1-carboxamide] was tested. Which EC50 did it give?
Its EC50 is over 10 µM.

How did the EC50 turn out when `CNC(=O)[C@@H]1CCN(C(=O)c2nc(-c3cc(F)c(F)cc3F)n3c2CN(C)CCC3)C1` [Compound 758, (R)-N-methyl-1-(8-methyl-3-(2,4,5-trifluorophenyl)-6,7,8,9-tetrahydro-5H-imidazo[1,5-a][1,4]diazepine-1-carbonyl)pyrrolidine-3-carboxamide] was run?
Its EC50 is over 10 µM.

How did the EC50 turn out when `CN1CCN(CC(C)(C)NC(=O)c2nc(-c3cc(Cl)c(F)cc3F)n3c2CN(C)CCC3)CC1` [Compound 879, 3-(5-chloro-2,4-difluorophenyl)-8-methyl-N-(2-methyl-1-(4-methylpiperazin-1-yl)propan-2-yl)-6,7,8,9-tetrahydro-5H-imidazo[1,5-a][1,4]diazepine-1-carboxamide] was run?
Its EC50 is over 10 µM.

For `CNC(=O)[C@H](CC(C)(C)C)NC(=O)c1nc(-c2ccc(F)c(Cl)c2)n2c1CN(C)CCC2` [Compound 546, (S)-3-(3-chloro-4-fluorophenyl)-N-(4,4-dimethyl-1-(methylamino)-1-oxopentan-2-yl)-8-methyl-6,7,8,9-tetrahydro-5-imidazo[1,5-a][1,4]diazepine-1-carboxamide], which EC50 is on record?
The EC50 was over 10 µM.

For `CNC(=O)[C@@H](NC(=O)c1nc(-c2cccnc2OC(C)C)n2c1CN(C)CCC2)C(C)(C)C` [Compound 641, (S)-N-(3,3-dimethyl-1-(methylamino)-1-oxobutan-2-yl)-3-(2-isopropoxypyridin-3-yl)-8-methyl-6,7,8,9-tetrahydro-5H-imidazo[1,5-a][1,4]diazepine-1-carboxamide], which EC50 is on record?
The EC50 was over 10 µM.

Which EC50 does the source give for `CNC(=O)[C@@H](NC(=O)c1nc(-c2ccccc2N)n2c1CN(C)CCC2)C(C)(C)C` [Compound 646, (S)-3-(2-aminophenyl)-N-(3,3-dimethyl-1-(methylamino)-1-oxobutan-2-yl)-8-methyl-6,7,8,9-tetrahydro-5H-imidazo[1,5-a][1,4]diazepine-1-carboxamide] here?
The EC50 was over 10 µM.

Which EC50 does the source give for `CN1CCCn2c(-c3cc(F)c(F)cc3F)nc(C(=O)N3CCC4(CCN(C)C4=O)CC3)c2C1` [Compound 788, 2-methyl-8-(8-methyl-3-(2,4,5-trifluorophenyl)-6,7,8,9-tetrahydro-5H-imidazo[1,5-a][1,4]diazepine-1-carbonyl)-2,8-diazaspiro[4.5]decan-1-one] here?
The EC50 was over 10 µM.

With `CNC(=O)[C@@H](NC(=O)c1nc(-c2cccc3c2OC(F)(F)O3)n2c1CN(C)CCC2)C(C)(C)C` [Compound 682, (S)-3-(2,2-difluorobenzo[d][1,3]dioxol-4-yl)-N-(3,3-dimethyl-1-(methylamino)-1-oxobutan-2-yl)-8-methyl-6,7,8,9-tetrahydro-5H-imidazo[1,5-a][1,4]diazepine-1-carboxamide] as the compound, how does the EC50 read?
Its EC50 is over 10 µM.

`CNC(=O)[C@@H]1CCN(C(=O)c2nc(-c3cc(Cl)c(F)cc3F)n3c2CN(C)CCC3)C1` [Compound 808, (R)-1-(3-(5-chloro-2,4-difluorophenyl)-8-methyl-6,7,8,9-tetrahydro-5H-imidazo[1,5-a][1,4]diazepine-1-carbonyl)-N-methylpyrrolidine-3-carboxamide] was tested. Which EC50 did it give?
Its EC50 is over 10 µM.

For `CNC(=O)[C@@H](NC(=O)c1nc(-c2cccnc2C)n2c1CN(C)CCC2)C(C)(C)C` [Compound 640, (S)-N-(3,3-dimethyl-1-(methylamino)-1-oxobutan-2-yl)-8-methyl-3-(2-methylpyridin-3-yl)-6,7,8,9-tetrahydro-5H-imidazo[1,5-a][1,4]diazepine-1-carboxamide], which EC50 is on record?
The EC50 was over 10 µM.

With `CN1CCCn2c(-c3cc(Cl)c(F)cc3F)nc(C(=O)NC3(C(=O)N4CC(F)(F)C4)CC3)c2C1` [Compound 873, 3-(5-chloro-2,4-difluorophenyl)-N-(1-(3,3-difluoroazetidine-1-carbonyl)cyclopropyl)-8-methyl-6,7,8,9-tetrahydro-5H-imidazo[1,5-a][1,4]diazepine-1-carboxamide] as the compound, how does the EC50 read?
Its EC50 is over 10 µM.

Which EC50 does the source give for `CN1CCCn2c(-c3cc(F)c(F)cc3F)nc(C(=O)NCC3CCOCC3)c2C1` [Compound 764, 8-methyl-N-((tetrahydro-2H-pyran-4-yl)methyl)-3-(2,4,5-trifluorophenyl)-6,7,8,9-tetrahydro-5H-imidazo[1,5-a][1,4]diazepine-1-carboxamide] here?
The EC50 was over 10 µM.

With `CNC(=O)[C@@H](NC(=O)c1nc(-c2ccc(C(F)(F)F)cc2C(F)(F)F)n2c1CN(C)CCC2)C(C)(C)C` [Compound 617, (S)-3-(2,4-bis(trifluoromethyl)phenyl)-N-(3,3-dimethyl-1-(methylamino)-1-oxobutan-2-yl)-8-methyl-6,7,8,9-tetrahydro-5H-imidazo[1,5-a][1,4]diazepine-1-carboxamide] as the compound, how does the EC50 read?
The EC50 was over 10 µM.

Which EC50 does the source give for `CN1CCCn2c(-c3cc(Cl)ccc3F)nc(C(=O)N[C@H](CNS(C)(=O)=O)C(C)(C)C)c2C1` [Compound 771, (S)-3-(5-chloro-2-fluorophenyl)-N-(3,3-dimethyl-1-(methylsulfonamido)butan-2-yl)-8-methyl-6,7,8,9-tetrahydro-5H-imidazo[1,5-a][1,4]diazepine-1-carboxamide] here?
The EC50 was over 10 µM.
